Data published in the NIST ThermoML archive (doi:10.1021/je1002829).
± gives the expanded uncertainty stated by the source.

Test: xn = mol fraction of the nth substance listed
Details: for mass density: 101 kPa, Liquid, Pycnometric method

CCCC(=O)O [butanoic acid] + O
Details	mass density, 293.15 K [kg/m3]	mass density, 298.15 K [kg/m3]	mass density, 303.15 K [kg/m3]	mass density, 308.15 K [kg/m3]	surface tension liquid-gas, 293.15 K [mN/m]	surface tension liquid-gas, 298.15 K [mN/m]	surface tension liquid-gas, 303.15 K [mN/m]	surface tension liquid-gas, 308.15 K [mN/m]
x1 = 0.00475	–	–	–	–	50.5 ± 1.1	50.01 ± 1.1	49.13 ± 1.1	48.56 ± 1.1
x1 = 0.00655	–	–	–	–	45.88 ± 1	45.32 ± 1	44.7 ± 1	44.05 ± 1
x1 = 0.00903	–	–	–	–	41.59 ± 0.98	40.95 ± 0.97	40.38 ± 0.97	39.72 ± 0.96
x1 = 0.00998	–	–	–	–	40.32 ± 0.97	39.69 ± 0.96	39.11 ± 0.95	38.47 ± 0.94
x1 = 0.01274	–	–	–	–	37.41 ± 0.92	36.84 ± 0.92	36.24 ± 0.91	35.68 ± 0.9
x1 = 0.01432	–	–	–	–	36.11 ± 0.91	35.6 ± 0.9	34.99 ± 0.89	34.5 ± 0.88
x1 = 0.01655	1002.55 ± 0.42	1000.29 ± 0.45	998.03 ± 0.46	995.86 ± 0.46	34.6 ± 0.88	34.16 ± 0.88	33.58 ± 0.87	33.16 ± 0.86
x1 = 0.02141	1003.38 ± 0.43	1001.03 ± 0.46	998.67 ± 0.47	996.41 ± 0.48	–	–	–	–
x1 = 0.03346	1004.38 ± 0.45	1001.93 ± 0.47	999.47 ± 0.48	997.11 ± 0.5	29.28 ± 0.81	28.91 ± 0.81	28.59 ± 0.8	28.45 ± 0.8
x1 = 0.03727	1004.49 ± 0.46	1001.94 ± 0.48	999.38 ± 0.49	996.93 ± 0.49	–	–	–	–
x1 = 0.04522	1004.3 ± 0.48	1001.66 ± 0.49	999.01 ± 0.5	996.46 ± 0.51	28.48 ± 0.8	28.33 ± 0.8	28.14 ± 0.79	27.95 ± 0.79
x1 = 0.04995	1004.13 ± 0.49	1001.39 ± 0.5	998.64 ± 0.51	995.99 ± 0.51	–	–	–	–
x1 = 0.05825	1003.61 ± 0.5	1000.77 ± 0.51	997.92 ± 0.52	995.18 ± 0.52	28.46 ± 0.8	28.38 ± 0.8	28.1 ± 0.79	27.87 ± 0.79
x1 = 0.06959	1002.83 ± 0.52	999.9 ± 0.52	996.96 ± 0.53	994.11 ± 0.56	–	–	–	–
x1 = 0.07723	1002.34 ± 0.55	999.13 ± 0.56	995.79 ± 0.56	992.85 ± 0.51	–	–	–	–
x1 = 0.08723	–	–	–	–	28.61 ± 0.8	28.3 ± 0.8	27.92 ± 0.79	27.72 ± 0.79
x1 = 0.09004	1001.61 ± 0.54	998.48 ± 0.55	995.24 ± 0.57	991.96 ± 0.57	–	–	–	–
x1 = 0.09948	1001.12 ± 0.55	997.91 ± 0.56	994.7 ± 0.56	991.51 ± 0.58	28.52 ± 0.8	28.24 ± 0.8	27.88 ± 0.79	27.67 ± 0.79
x1 = 0.1147	–	–	–	–	28.39 ± 0.8	28.17 ± 0.79	27.84 ± 0.79	27.63 ± 0.79
x1 = 0.1172	1000.27 ± 0.56	996.95 ± 0.57	993.63 ± 0.57	990.42 ± 0.58	–	–	–	–
x1 = 0.131	999.59 ± 0.57	996.11 ± 0.59	992.63 ± 0.59	989.31 ± 0.58	–	–	–	–
x1 = 0.134	–	–	–	–	28.24 ± 0.8	28.1 ± 0.79	27.82 ± 0.79	27.58 ± 0.79
x1 = 0.1428	–	–	–	–	28.19 ± 0.8	28.07 ± 0.79	27.81 ± 0.79	27.56 ± 0.79
x1 = 0.1443	998.82 ± 0.59	995.31 ± 0.59	991.8 ± 0.6	988.32 ± 0.59	–	–	–	–
x1 = 0.1767	997.16 ± 0.59	993.56 ± 0.6	989.96 ± 0.6	986.45 ± 0.61	28.21 ± 0.8	28.01 ± 0.79	27.79 ± 0.79	27.47 ± 0.79

CCCCCC(=O)O [hexanoic acid] + O
Details	mass density, 293.15 K [kg/m3]	mass density, 298.15 K [kg/m3]	mass density, 303.15 K [kg/m3]	mass density, 308.15 K [kg/m3]	surface tension liquid-gas, 293.15 K [mN/m]	surface tension liquid-gas, 298.15 K [mN/m]	surface tension liquid-gas, 303.15 K [mN/m]	surface tension liquid-gas, 308.15 K [mN/m]
x1 = 8e-05	–	–	–	–	63.26 ± 1.3	62.69 ± 1.3	62.67 ± 1.3	62.16 ± 1.3
x1 = 0.00015	998.24 ± 0.34	997.08 ± 0.37	995.67 ± 0.39	994.07 ± 0.41	–	–	–	–
x1 = 0.00016	–	–	–	–	56.6 ± 1.2	56.02 ± 1.2	56.09 ± 1.2	56.02 ± 1.2
x1 = 0.00023	–	–	–	–	52.29 ± 1.1	51.8 ± 1.1	51.81 ± 1.1	51.94 ± 1.1
x1 = 0.00032	–	–	–	–	48.25 ± 1.1	47.98 ± 1.1	47.93 ± 1.1	48.06 ± 1.1
x1 = 0.00037	–	–	–	–	46.55 ± 1.1	46.17 ± 1.1	45.98 ± 1	46.29 ± 1.1
x1 = 0.00043	998.28 ± 0.34	997.12 ± 0.37	995.68 ± 0.4	994.07 ± 0.41	–	–	–	–
x1 = 0.00046	–	–	–	–	44.03 ± 1	43.54 ± 1	43.22 ± 1	43.67 ± 1
x1 = 0.00051	–	–	–	–	42.83 ± 1	42.62 ± 1	42.44 ± 0.99	42.6 ± 1
x1 = 0.0006	998.31 ± 0.34	997.14 ± 0.37	995.72 ± 0.4	994.09 ± 0.42	–	–	–	–
x1 = 0.00062	–	–	–	–	40.57 ± 0.97	40.6 ± 0.97	40.57 ± 0.97	40.45 ± 0.97
x1 = 0.00069	–	–	–	–	39.19 ± 0.95	39.02 ± 0.95	38.98 ± 0.95	38.89 ± 0.94
x1 = 0.00077	–	–	–	–	37.72 ± 0.93	37.36 ± 0.92	37.36 ± 0.92	37.2 ± 0.92
x1 = 0.00084	–	–	–	–	36.64 ± 0.91	36.28 ± 0.91	36.21 ± 0.91	36.07 ± 0.91
x1 = 0.00091	–	–	–	–	35.66 ± 0.9	35.23 ± 0.89	35.04 ± 0.89	34.96 ± 0.89
x1 = 0.00106	998.36 ± 0.35	997.18 ± 0.37	995.77 ± 0.4	994.1 ± 0.42	–	–	–	–
x1 = 0.0011	–	–	–	–	33.79 ± 0.87	33.17 ± 0.86	32.82 ± 0.86	32.46 ± 0.85
x1 = 0.00115	–	–	–	–	33.55 ± 0.87	32.94 ± 0.86	32.57 ± 0.86	32.11 ± 0.85
x1 = 0.00143	998.42 ± 0.35	997.22 ± 0.37	995.77 ± 0.4	994.12 ± 0.42	–	–	–	–
x1 = 0.00148	998.43 ± 0.35	997.23 ± 0.37	995.79 ± 0.4	994.12 ± 0.42	–	–	–	–
x1 = 0.0018	998.47 ± 0.35	997.25 ± 0.37	995.81 ± 0.4	994.13 ± 0.42	–	–	–	–
x1 = 0.00195	998.49 ± 0.35	997.28 ± 0.37	995.82 ± 0.4	994.15 ± 0.42	–	–	–	–
x1 = 0.00205	998.5 ± 0.35	997.29 ± 0.37	995.83 ± 0.4	994.14 ± 0.42	–	–	–	–
x1 = 0.00222	998.52 ± 0.35	997.29 ± 0.37	995.83 ± 0.4	994.16 ± 0.42	–	–	–	–
x1 = 0.00228	998.54 ± 0.35	997.31 ± 0.37	995.84 ± 0.4	994.16 ± 0.42	–	–	–	–
x1 = 0.0025	998.56 ± 0.35	997.33 ± 0.37	995.86 ± 0.4	994.18 ± 0.42	–	–	–	–
x1 = 0.00271	998.58 ± 0.35	997.35 ± 0.37	995.88 ± 0.4	994.19 ± 0.42	–	–	–	–
x1 = 0.00289	998.62 ± 0.35	997.37 ± 0.37	995.89 ± 0.4	994.19 ± 0.42	–	–	–	–
x1 = 0.00305	998.63 ± 0.35	997.4 ± 0.37	995.91 ± 0.4	994.21 ± 0.42	–	–	–	–
x1 = 0.0035	998.69 ± 0.35	997.43 ± 0.37	995.94 ± 0.4	994.23 ± 0.42	–	–	–	–
